Experiments:
HsCOASY = biological target: T1, HsCOASY (Homo sapiens, UniProt Q13057); assay: HsCOASY counterassay; format: biochemical; conditions: reciprocal plot analysis
T1 construct: His tag (pCold1 vector); made in house; host or cells: Escherichia coli BL21Star (DE3)
T1 sequence (Q13057 1-564): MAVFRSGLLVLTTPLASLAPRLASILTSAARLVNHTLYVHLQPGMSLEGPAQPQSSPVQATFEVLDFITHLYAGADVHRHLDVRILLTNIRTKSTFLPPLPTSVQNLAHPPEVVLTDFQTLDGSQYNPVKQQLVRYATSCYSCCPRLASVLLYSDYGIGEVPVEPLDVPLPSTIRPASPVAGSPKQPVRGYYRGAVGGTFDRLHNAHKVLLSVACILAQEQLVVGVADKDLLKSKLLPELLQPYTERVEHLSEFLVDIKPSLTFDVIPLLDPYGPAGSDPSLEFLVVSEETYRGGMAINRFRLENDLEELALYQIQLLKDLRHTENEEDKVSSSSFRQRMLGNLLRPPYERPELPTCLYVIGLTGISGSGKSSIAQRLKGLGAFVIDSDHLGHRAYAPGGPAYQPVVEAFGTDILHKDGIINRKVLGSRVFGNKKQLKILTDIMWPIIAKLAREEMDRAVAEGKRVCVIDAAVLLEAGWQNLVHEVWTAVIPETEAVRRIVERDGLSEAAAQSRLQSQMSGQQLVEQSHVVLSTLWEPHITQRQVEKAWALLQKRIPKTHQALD
Experimental: PfDPCK and HsCOASY activity was measured by quantifying ADP produced in the reaction by a coupling assay using the ADP Hunter Plus assay kit (DiscoverX, USA) according to the manufacturer's instructions. Briefly, enzymatic reactions were carried out in a 20-μL mixture of assay buffer containing 15 mM HEPES, 20 mM NaCl, 1 mM EGTA, 0.02% Tween 20, 10 mM MgCl2, 0.1% bovine gamma globulin, 50 ng of recombinant PfDPCK or HsCOASY, 4 to 256 μM dephospho-CoA, and 5 to 300 μM ATP on a black microplate. All reactions were performed for 2 h, reagents A and B were added, and they were then reincubated for 60 min at 30°C. After reactions were terminated by addition of ADP Hunter Stop solution, the fluorescent signal was measured using SpectraMax Paradigm (Molecular Devices, CA, USA) at excitation and emission wavelengths of 530 and 590 nm, respectively. The kinetic parameters were calculated using the nonlinear regression function using the single saturating concentrations of the substrates by the GraphPad Prism software (GraphPad Software Inc., San Diego, CA). The experiments were repeated three times in triplicate using proteins purified from independent cultures. […]
The primary hits were reassayed in quadruplicate (n = 4) as in the primary screening. We next tested the confirmed secondary hits to exclude false positives that inhibit coupled fluorescence assay, but not PfDPCK. […]

HepG2 cell line = assay: Cytotoxicity assay (Cell Counting Kit-8); format: cell-based, human; conditions: Homo sapiens, HepG2; Table S1; means ± SEM; read-out: IC50 (μM) HepG2
Experimental: Cytotoxicity against human cells was evaluated using the human liver carcinoma HepG2 cell line. HepG2 cells were cultured in D-MED supplemented with 4 mM L-glutamine and 10% fetal bovine serum (FBS) in a 75-cm^2 flask (Violamo) at 37°C. For the cytotoxicity assay, HepG2 cells in semiconfluent state were detached from the flask by incubating the cells with 5 mL D-MEM containing 0.25% trypsin-EDTA. After detachment, HepG2 cells were resuspended in D-MEM-supplemented L-glutamine and FBS, and cell viability was evaluated by incubating cells with 0.4% Trypan blue on a hemocytometer. An approximately 50-μL suspension containing 3,000 cells was dispensed into each well on a 384-well clear-bottom plate using a Multidrop Combi dispenser. Compounds dissolved in DMSO had been dispensed into wells to yield final concentrations of 100, 20, 4, 0.8, and 0.2 μM before cells were added. After cells were added to the plates, they were cultured at 37°C under 5% CO2. After 48 h cultivation, 5 μL of Cell Counting Kit-8 (Dojindo, Japan) was added, and the plates were further incubated for 2 h to assess cell growth and survival.

- inhibition of HsCOASY (HsCOASY): inhibits PfDPCK, but not HsCOASY
SMILES: CC(C)(C)c1cc(C(=O)Cn2c(NCCO)nc3ccccc32)cc(C(C)(C)C)c1O [Compound A-15]
- IC50 (HepG2 cell line): 29.9 ± 3.61 µM

Reference: PMC9664868, “Dephospho-Coenzyme A Kinase Is an Exploitable Drug Target against Plasmodium falciparum: Identification of Selective Inhibitors by High-Throughput Screening of a Large Chemical Compound Library” (Antimicrobial Agents and Chemotherapy, 2022)
